Reference: patent publication US9890176B2, “Mannose derivatives for treating bacterial infections” (Vertex Pharmaceuticals Incorporated, priority 2013, dated 2018)

Tests used:
[1] = Mouse Feces Stability Assay; format: in vitro ADME; details: 100 uM in mouse feces supernatant, pH 6.5, 37° C.
Description: The mouse feces stability assay can be used to measure the stability of FimH antagonists in an environment that mimics the gut. Fresh mouse feces samples from a number of animals (at least 4) are homogenized with 10 volumes (w/v) of 100 mM potassium phosphate buffer (pH 6.5) using a Stomacher device. The feces mixture is then centrifuged 5 min at 2000 g and the supernatant is collected for incubation. Compounds to be tested are spiked at 100 uM in the feces supernatant and incubated at 37° C. up to 6 hours. The enzymatic reaction is stopped by adding 9 volumes of acetonitrile containing 0.1% formic acid and an internal standard. The mixture is centrifuged and the supernatants are analyzed by HPLC-MS/MS to assess percentage of parent remaining relative to a control sample.

[2] = Human Feces Stability Assay; format: in vitro ADME; details: 100 uM in human feces supernatant (3 donors), pH 6.5, 37° C.
Description: The human feces stability assay ca be used to measure the stability of FimH antagonists in an environment that mimics the gut. Fresh human feces samples from 3 donors are homogenized with 10 volumes (w/v) of 100 mM potassium phosphate buffer (pH 6.5) using a Stomacher device. The feces mixture is then centrifuged 5 min at 2000 g and supernatant is collected for incubations. Compounds to be tested are spiked at 100 uM in feces supernatant and incubated at 37° C. up to 24 hours. The enzymatic reaction is stopped by adding 9 volumes of acetonitrile containing 0.1% formic acid and internal standard. The mixture is centrifuged and the supernatants are analysed by HPLC-MS/MS to assess percentage of parent remaining relative to a control sample.

[3] = Mouse Excretion Study Following FimH Antagonist Oral Dosing; format: in vivo; details: 10 mg/kg orally, collection up to 72 h
Description: Mice are dosed 10 mg/kg orally (10 mL/kg; 0.5% methocel) with FimH antagonists and urine and feces are collected on ice up to 72 h in excretion cages. Post-collection, feces samples are diluted with 10 volumes of water and homogenized using a Stomacher device. Feces mixture and urine samples are then quenched with acetonitrile containing an internal standard, centrifuged, and the supernatants are then diluted with 1 volume of water prior to analysis by HPLC-MS/MS in SRM mode.

[4] = molecular target: T1, carbohydrate recognition domain of the protein FimH (M1-T179) (Escherichia coli, UniProt P08191); assay: Thermal Shift Assay; format: binding, E. coli; details: 5.6 μM protein, 56 μM ligand; DMSO control as reference; ± standard error of the mean (number of repeats)
T1 construct: domain of the protein FimH (M1-T179) with an uncleavable C-terminus 6-His tag; made in house; host or cells: E. coli (pET21b plasmid)
Description: The carbohydrate recognition domain of the protein FimH (M1-T179) with an uncleavable C-terminus 6-His tag is cloned in a pET21b plasmid and expressed in E. coli and purified to homogeneity. The thermal stabilization of the protein upon ligand binding is measured in a 96-well format on a ViiA™ 7 (Life Technologies, Carlsbad, Calif.) RT-PCR instrument. The assay is conducted in duplicate in 20 mM Tris pH 7.4 and 150 mM NaCl at a final concentration of 5.6 μM and 56 μM for protein and ligand, respectively. An environmentally-sensitive dye (Applied Biosystems Protein Thermal Shift™ Dye (P/N 4461141)) is added to each well to a final ratio of 1:1000. Plates are spun at 1000×g for 1 minute and incubated at room temperature for 10 minutes. Thermal stability of protein with and without ligand is measured from 45° C. to 85° C. at a scan rate of 0.05° C./sec. The resulting data is analyzed using Protein Thermal Shift™ Software (version 1.1) with DMSO control used as reference.

[5] = test system: bacterial strain LF82 binding to the glycoprotein BSA-(Mannose)3; assay: Bacterial Binding Assay (BBA); format: cell-based, Escherichia coli; details: read-out: Bacterial Binding Assay IC50
Method in brief: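 Luciferase-tagged E. coli LF82 grown overnight at 37° C without shaking, then added at 2×10^8 bacteria/mL (10^7 per well) to wells coated with 0.5-2 μg/mL BSA-(Man)3 and blocked with 2% BSA. Compound in 0.2% BSA/D-PBS; binding 40-75 min at room temperature. Washed; bound bacteria read by luciferase luminescence; IC50.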

T1 sequence (P08191 22-179 limits assumed): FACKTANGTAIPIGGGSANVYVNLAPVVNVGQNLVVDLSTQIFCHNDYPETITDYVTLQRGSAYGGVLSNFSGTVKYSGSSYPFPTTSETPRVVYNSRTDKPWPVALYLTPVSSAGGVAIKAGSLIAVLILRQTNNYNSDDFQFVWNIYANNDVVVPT

| Compound | Delta Thermal melt [4] | IC50 [5] | further results |
| --- | --- | --- | --- |
| CNC(=O)c1cccc(-c2ccc(O[C@H]3O[C@H](CO)[C@@H](O)[C@H](O)[C@@H]3O)c(C)c2)c1 [A] | – | – | In vitro mice feces stability - % Parent remaining at 6 h [1]: 0%; In vitro human feces stability - % Parent remaining at 24 h [2]: 35%; % Oral dose recovered intact in mice feces [3]: 8.4%; % Oral dose recovered intact in mice urine [3]: 0.20% |
| Cc1cc(Br)ccc1O[C@H]1O[C@H](CO)[C@@H](O)[C@H](O)[C@@H]1F [Example 1, (2R,3S,4S,5S,6R)-6-(4-bromo-2-methyl-phenoxy)-5-fluoro-2-(hydroxymethyl)tetrahydropyran-3,4-diol] | 3 (1) ° C. | – | – |
| Cc1cc(-c2cccc([N+](=O)[O-])c2)ccc1O[C@H]1O[C@H](CO)[C@@H](O)[C@H](O)[C@@H]1F [Example 2, (2R,3S,4S,5S,6R)-5-fluoro-2-(hydroxymethyl)-6-((3-methyl-3′-nitro-[1,1′-biphenyl]-4-yl)oxy)tetrahydro-2H-pyran-3,4-diol] | 6.01 (1) ° C. | 1.15 ± 0.35 µM | – |
| OC[C@H]1O[C@H](Oc2ccc(Br)cc2C(F)(F)F)[C@@H](F)[C@@H](O)[C@@H]1O [Example 3, (2R,3S,4S,5S,6R)-6-[4-bromo-2-(trifluoromethyl)phenoxy]-5-fluoro-2-(hydroxymethyl)tetrahydropyran-3,4-diol] | 3.2 (1) ° C. | – | – |
| CNC(=O)c1cccc(-c2ccc(O[C@H]3O[C@H](CO)[C@@H](O)[C@H](O)[C@@H]3F)c(C(F)(F)F)c2)c1 [Example 4, 3-[4-[(2R,3S,4S,5S,6R)-3-fluoro-4,5-dihydroxy-6-(hydroxymethyl)tetrahydropyran-2-yl]oxy-3-(trifluoromethyl)phenyl]-N-methyl-benzamide] | 5.6 (1) ° C. | 0.47 ± 0.032 µM | In vitro mice feces stability - % Parent remaining at 6 h [1]: 108% |
| COc1cc(Br)ccc1O[C@H]1O[C@H](CO)[C@@H](O)[C@H](O)[C@@H]1F [Example 5, (2R,3S,4S,5S,6R)-6-(4-bromo-2-methoxy-phenoxy)-5-fluoro-2-(hydroxymethyl)tetrahydropyran-3,4-diol] | 1.8 (1) ° C. | – | – |
| CNC(=O)c1cccc(-c2ccc(O[C@H]3O[C@H](CO)[C@@H](O)[C@H](O)[C@@H]3F)c(C)c2)c1 [Example 6, 3-[4-[(2R,3S,4S,5S,6R)-3-fluoro-4,5-dihydroxy-6-(hydroxymethyl)tetrahydropyran-2-yl]oxy-3-methyl-phenyl]-N-methyl-benzamide] | 4.905 ± 0.195 (2) ° C. | 0.75 ± 0.141 µM | In vitro mice feces stability - % Parent remaining at 6 h [1]: 108% |
| CNC(=O)c1cccc(-c2ccc(O[C@H]3O[C@H](CO)[C@@H](O)[C@H](O)[C@@H]3F)cc2)c1 [Example 7, 3-[4-[(2R,3S,4S,5S,6R)-3-fluoro-4,5-dihydroxy-6-(hydroxymethyl)tetrahydropyran-2-yl]oxyphenyl]-N-methyl-benzamide] | 3.86 ± 0.09 (2) ° C. | 8.62 ± 1.3 µM | – |
| CNC(=O)c1cccc(-c2ccc(O[C@H]3O[C@H](CO)[C@@H](O)[C@H](O)[C@@H]3F)c(OC)c2)c1 [Example 8, 3-[4-[(2R,3S,4S,5S,6R)-3-fluoro-4,5-dihydroxy-6-(hydroxymethyl)tetrahydropyran-2-yl]oxy-3-methoxy-phenyl]-N-methyl-benzamide] | 4 (1) ° C. | 5.4 ± 0.2 µM | – |
| COC(=O)c1cc(C(=O)OC)cc(-c2ccc(O[C@H]3O[C@H](CO)[C@@H](O)[C@H](O)[C@@H]3F)cc2)c1 [Example 9, Dimethyl 5-[4-[(2R,3S,4S,5S,6R)-3-fluoro-4,5-dihydroxy-6-(hydroxymethyl)tetrahydropyran-2-yl]oxyphenyl]benzene-1,3-dicarboxylate] | 4.39 ± 0.11 (2) ° C. | – | – |
| Cc1cc(=O)oc2cc(O[C@H]3O[C@H](CO)[C@@H](O)[C@H](O)[C@@H]3F)ccc12 [Example 10, 7-[(2R,3S,4S,5S,6R)-3-fluoro-4,5-dihydroxy-6-(hydroxymethyl)tetrahydropyran-2-yl]oxy-4-methyl-chromen-2-one] | 3.405 ± 0.105 (2) ° C. | – | – |
| CNC(=O)c1cccc(-c2ccc(O[C@H]3O[C@H](CO)[C@@H](O)[C@H](F)[C@@H]3O)cc2)c1 [Example 11, 4′-(((2R,3R,4S,5R,6R)-4-fluoro-3,5-dihydroxy-6-(hydroxymethyl)tetrahydro-2H-pyran-2-yl)oxy)-N-methyl-[1,1′-biphenyl]-3-carboxamide] | 2.6 (1) ° C. | 14 µM | – |
| CNC(=O)c1cccc(-c2ccc(O[C@H]3O[C@H](CF)[C@@H](O)[C@H](O)[C@@H]3O)cc2)c1 [Example 12, 4′-(((2R,3S,4S,5S,6S)-6-(fluoromethyl)-3,4,5-trihydroxytetrahydro-2H-pyran-2-yl)oxy)-N-methyl-[1,1′-biphenyl]-3-carboxamide] | 0.06 ± 0.11 (2) ° C. | – | In vitro mice feces stability - % Parent remaining at 6 h [1]: 118% |
| CNC(=O)c1cccc(-c2ccc(O[C@H]3O[C@H](CO)[C@@H](O)[C@H](O)[C@]3(C)O)c(C)c2)c1 [Example 13, N,3′-dimethyl-4′-(((2R,3S,4S,5S,6R)-3,4,5-trihydroxy-6-(hydroxymethyl)-3-methyltetrahydro-2H-pyran-2-yl)oxy)-[1,1′-biphenyl]-3-carboxamide] | 10.71 ± 0 (2) ° C. | 0.015 ± 0.002 µM | – |
| CNC(=O)c1cccc(-c2ccc(O[C@H]3O[C@H]([C@@H](C)O)[C@@H](O)[C@H](O)[C@@H]3O)c(C)c2)c1 [compound 29] | – | > 10 µM | – |
| COc1ccc2c(c1)CC[C@]1(O2)O[C@H](CO)[C@@H](O)[C@H](O)[C@@H]1O [compound 32] | – | 0.333 ± 0.1 µM | – |
| CNC(=O)c1cccc(-c2ccc3c(c2)CC[C@]2(O3)O[C@H](CO)[C@@H](O)[C@H](O)[C@@H]2O)c1 [compound 33] | – | 0.027 ± 0.008 µM | – |
| CNC(=O)c1ccc(CCO[C@@]2(C)O[C@H](CO)[C@@H](O)[C@H](O)[C@@H]2O)cc1 [compound 35] | – | 1.8 ± 0.3 µM | – |
